Measurements published in the OPERA property sets (Mansouri et al. 2018).

SMILES | logP
O=CNc1nccs1 | 0.54
NNC(=O)c1ccccc1I | 0.47
CON(C)C(=O)Nc1cccc(F)c1 | 1.68
CCOP(=O)(OCC)Oc1ccc(SC)cc1 | 2.79
CCOP(=O)(OCC)SCS(=O)CC (configuration not stated) | 1.78
CC(C)NNC(=O)C(C)(C)Oc1ccc(Cl)cc1 | 2.56
COc1cc(C)nc(-n2nc(C)cc2OC)n1 | 1.26
CNP(=O)(OC)Oc1ccc(Cl)cc1 (configuration not stated) | 1.85
CCNC(=O)CNC(=O)C=[N+]=[N-] | -0.62
O=[N+]([O-])C=Cc1ccc([N+](=O)[O-])cc1 | 1.89
CON(C)C(=O)Nc1ccc(OCc2ccccc2)cc1 | 3.11
Cc1cccc2c1ncc[n+]2[O-] | 1.2
COc1cc(Cc2cnc(N)nc2N)cc(OC)c1C(C)C | 3.37
Cc1cc(C)c(NC2=NCCN2)c(Cl)c1 | 2.1
CN(Cc1ccc(C#N)cc1)N=Nc1ccc(C(=O)O)cc1 | 3.6
CC(C)C1=Nc2cc(Cl)ccc2S(=O)(=O)N1 | 2
CC1=Nc2ccc(S(=O)(=O)N(C)C)cc2S(=O)(=O)N1 | 0.32
COc1cc(Cc2cnc(N)nc2N)ccc1OCc1ccccc1 | 2.66
CN(C)C(=O)Oc1ccc(Cl)cc1 | 2.27
COc1cc(-n2c(=O)cc(C)n2C)nc(C)n1 | 0.7
COc1cc(Cc2cnc(N)nc2N)ccc1O | 0.64
COc1cc(Cc2cnc(N)nc2N)cc(OC)c1C(=O)OC(C)C | 1.72
COc1cc(C)n(-c2cc(C)nc(C)n2)n1 | 2.6
CCCCNc1ccccc1C(N)=O | 2.33
CCCCCCCCCCCCCC[n+]1ccccc1C.[I-] | 2.27
CC(=O)C(C#N)=NNc1ccc(Cl)c(Cl)c1 | 4.56

SMILES | logP
CNc1cc(Cc2cnc(N)nc2N)cc(NC)c1 | 0.44
CCCCOC(=O)N(CCCC)SN(C)C(=O)ON=C(C)SC | 4.2
O=C1CN=C(c2cccc(Br)c2)c2cc(Br)ccc2N1 | 3.88
CCOP(=O)(OCC)Oc1ccc(SC)c(Cl)c1 | 2.94
Cc1ccc(C(=O)c2ccncc2)cc1 | 2.51
O=C1CCC(=O)N1c1cccc(C(F)(F)F)c1 | 1.26
CCOC(=O)c1c(OC)cc(Cc2cnc(N)nc2N)cc1OC | 1.25
CCCCC1OC(=O)c2cc(N)ccc21 (configuration not stated) | 2.86
CC1=Nc2cc(N)c(Cl)cc2S(=O)(=O)N1 | 0.63
N#Cc1cccc(OC(=O)CNC(=O)c2ccccc2)c1 | 2.11
CC(=O)N(c1ccccc1)S(C)(=O)=O | 0.29
O=C1CCC(=O)N1c1ccccc1Cl | 0.56
CN(C)c1cnnc(N(C)C)c1 | 0.84
COP(=O)(OC)Oc1ccc([N+](=O)[O-])c(C)c1 | 1.69
COc1cccc(OC2OC(CO)C(O)C(O)C2O)c1 (configuration not stated) | -0.52
ClC1=CC(Cl)C(Cl)C(Cl)C1 (configuration not stated) | 3.72
CC(=O)N(CCO)c1c(I)c(C(=O)NCC(O)CO)c(I)c(C(=O)NCC(O)CO)c1I (configuration not stated) | -2.47
COc1cc(-n2nc(C)cc2OC)ncn1 | 1.53
FC(F)(F)c1nc2c(Cl)ccc(Cl)c2[nH]1 | 2.87
CCOP(=S)(OCC)SCS(=O)(=O)C(C)(C)C | 2.48
O=C(O)CCSc1c[nH]c2ccccc12 | 2.15
O=C(NC(CO)C(O)c1ccc([N+](=O)[O-])cc1)c1ccccc1 (configuration not stated) | 1.63
OCC1OC(OC2CCCCC2)C(O)C(O)C1O (configuration not stated) | -0.63
CSc1nncc(=O)n1N | 0.38
CCC(C)n1nnc2ccccc21 (configuration not stated) | 2.31
Cc1cc(=O)n2c(C)cccc2n1 | 1.05

SMILES | logP
COc1cc(Cc2cnc(N)nc2N)cc(OC)c1CO | 0.42
COc1cc(Cc2cnc(N)nc2N)cc(OC)n1 | 1.64
COc1cc(C)n(-c2nc(C)cc(C)n2)n1 | 1.82
CN(C)CNC(=O)c1ccccc1 | 0.63
COc1cn[nH]c1 | 0.37
CCCCCCCCCCCCCCCC[n+]1cc(C)cc(C)c1.[I-] | 3.35
COc1nc(C)cc(-n2[nH]c(C)cc2=O)n1 | 1.03
COc1cc(Cc2cnc(N)nc2N)cc(OC)c1OCC#N | 0.72
CCCCCCCCCC[n+]1ccc(C)c(C)c1.[I-] | 0.66
CSc1nc(C)cc(C)n1 | 1.86
CC(=O)Nc1ccn(C2OC(COC(C)=O)C(OC(C)=O)C2OC(C)=O)c(=O)n1 (configuration not stated) | -0.16
O=C1CCC(=O)N1c1ccccc1Br | 0.65
CC(=O)Nc1cc(C(F)(F)F)cc(C(F)(F)F)c1Br | 3.51
CC1=Nc2cc(C)ccc2S(=O)(=O)N1 | 0.74
CC(=O)c1ccccc1NCCO | 1.59
COc1cc(S(=O)(=O)CCN2CCOCC2)cc(OC)c1OC | 1.29
COc1ccccc1NCC#N | 1.3
N#Cc1ccc(NC(=O)N=C(N)N)cc1Cl | 1.9
CC1CN(C)C(=Nc2ncc([N+](=O)[O-])s2)N1 (configuration not stated) | 1.95
CCCCO[N+](=O)[O-] | 2.15
NC(=O)c1[nH]cnc1/N=N/N(CCO)CCO | -1.09
CSCN1C(=O)CN=C(c2ccccc2)c2cc(Cl)ccc21 | 3.32
CCOC(=O)C(=Cc1cccc(Cl)c1)C(=O)OCC | 3.49
CCCCCCc1nnc(SC)n(N)c1=O | 2.68
CC(=O)c1ccc(N2C(N)=NC(N)=NC2(C)C)cc1 | -0.04
